Reference: patent publication US6638974B1, “Ascorbyl esters for the treatment of cancer” (University of South Florida, priority 1999, dated 2003)

Legend:
T98G cells = assay: Apoptosis by in situ TUNEL assay, T98G; assay type: cell-based, human; conditions: 100 μM, 24 hours
Experimental: (§1) Apoptosis by in situ TUNNEL assay: This experiment was designed to test the hypothesis that down regulation of IGF1-R facilitates apoptosis in T98G cells. […] In addition, to test whether Asc-S treatment induces apoptosis in normal cells, rat astrocyte cells in primary culture were treated with 100 μM Asc-S for 24 hours. […] The increased apoptosis in the Asc-S treated T98G cells is due to down regulation of IGF1-R.
(§2) In FIG. 10, apoptosis was evaluated by in situ immunohistochemical detection and quantification at a single cell level.

IGF1-R [1] = assay: IGF1-R expression by Western blotting, PC-1; assay type: cell-based, hamster; conditions: 150 μM, 24 hours, vs untreated control
Experimental: This inhibition was dose and time dependent. In fact the exposure of PANC-1 cells to different concentrations of Asc-S (e.g. 50, 75, 100, 125, 150, and 200 μM) for 24 hours in the same conditions, inhibited IGF1-R expression in a dose dependent fashion (FIG. 2A).
The effect of Asc-S on the proliferation of PC-1 and PANC-1 pancreatic tumor cells was studied using MTT assay. The expression of IGF1-R was analyzed by Western blot analysis, using polyclonal IGF1-R antibody (Upstate Biotech). Apoptosis was assessed by in situ hybridization using TUNEL reaction. […] This was associated with significant decrease in IGF1-R expression and increased apoptotic rate as compared to the control. Statistical analysis on the MTT assay was done using Student's T-test.

[2] = tested on: mouse glioma cells (G-26); assay: Intracerebral G-26 glioma in C57BL/6 mice, survival; assay type: in vivo; conditions: C57BL/6 mice with intracerebral G-26 gliomas, oral 250 mg/Kg daily; controls 27±2 days
Experimental: In vivo administration of Asc-S (250 mg/Kg) on intracerebral gliomas in C57BL/6 mice: The C57BL/6 mice were implanted with mouse glioma cells (G-26) by stereotaxic intracerebral implantation. […] (FIGS. 11A and B).
The body weight profiles of those mice during the experiments are shown in (FIG. 11B). The median survival observed in this study is statistically significant (P<0.05).
In vivo administration of Asc-S (250 mg/Kg) on intracerebral gliomas in C57BL/6 mice. The C57BL/6 mice were implanted with mouse glioma cells (G-26) by stereotaxic intracerebral implantation.
The body weight profiles of those mice during the experiments are shown in (FIG. 17B). The median survival observed in this study is statistically significant (P<0.05).

Ras (p21) = Ras (p21) expression by Western blot, PANC-1; assay type: cell-based, human; conditions: 150 μM, 24 hours
Experimental: PANC-1 cells were cultured for 24 hours in MEM+10% FBS and treated with 150 μM Asc-S for 24 hours, Asc-S treated and untreated (control). PANC-1 cells were analyzed by Western immunoblotting as follows: Cell lysates of treated and non-treated PANC-1 cells were obtained. The lysates were sonicated, centrifuged and protein concentration was determined with Pierce BCA protein kit (Pierce Laboratories). A 20 μg of protein was loaded and resolved at 4% to 15% polyacrylamide gradient gel by sodium dodecyl sulfate-polyacrylamide gel electrophoresis (SDS-PAGE) and electroblotted onto a nitrocellulose membrane […]. The membrane was immunoblotted with mouse anti-human IGF1-R antibodies to cross-react the 85 kDa β-subunit of the IGF1-R (Pharmingen, San Diego, Calif.) followed by anti-mouse horseradish peroxidase conjugated secondary antibody (ECL, Amersham Corporation, Arlington Heights, Ill.). Antigen bound to nitrocellulose membrane was detected with the ECL system (Amersham Corporation, Arlington Heights, Ill.). P6 cells (3T3 fibroblast cells, transfected with a CVN plasmid constituitively expressing human IGF1-R) were used as the positive control.
Effects of Asc-S on Ras expression in PANC-1 cells: The activation of the IGF1-R induces a cascade of phosphorylations including that of GDP to GTP with activation of the Ras pathway. […]

IGF1-R [3] = assay: IGF1-R expression by Western immunoblotting, U-373; assay type: cell-based, human; conditions: 75 μM, 24 hours, MEM+10% FBS
Experimental: (§3) The T98G and U-373 cells were cultured for 24 hours in MEM+10% FBS and when confluent were treated with 100 μM and 75 μM, Asc-S for 24 hours, respectively. […] In addition, it was also observed that the inhibition of IGF1-R expression was dose and time dependent. The T98G cells culture in MEM+10% FBS and treated with different concentrations of Asc-S, e.g. 50, 75, 100, 125, 150 and 175 μM for 24 hours, inhibited IGF1-R in a dose dependent fashion (FIG. 8C). The T98G cells treated with 100 μM Asc-S for different time points, e.g. 1, 3, 6, 12 and 24 hours inhibited IGF1-R in a time dependent manner (FIG. 8D). IGF1-R expression was evaluated by Western immunoblotting technique with rabbit-antihuman IGF1-R antibodies (Upstate Biotechnology, Lake Placid, N.Y.) with HRP conjugated anti-rabbit secondary antibody.
(§4) The inhibition of IGF1-R expression was also dose and time dependent. […] The following are depicted in FIG. 8B: Lane 1: P6 positive control for IGF1-R […]; Lane 2: untreated T98G cells; Lane 3: Asc-S (125 μM) treated T98G cells. […]

rat astrocyte cells = assay: Apoptosis by in situ TUNEL assay, rat astrocytes in primary culture; assay type: cell-based; conditions: 100 μM, 24 hours, vs untreated astrocytes
Experimental: as §1, §2

IGF1-R [4] = assay: IGF1-R expression by Western immunoblotting, T98G; assay type: cell-based, human; conditions: 100 μM, 24 hours, MEM+10% FBS
Experimental: as §3, §4

## CCCCCCCCCCCCCCCCCC(=O)OC[C@H](O)[C@H]1OC(=O)C(O)=C1O [Asc-S, Ascorbyl stearate]
T98G cells
  apoptosis (in situ TUNEL), T98G cells: significant increase in apoptosis
IGF1-R [1]
  IGF1-R expression, PC-1 cells (Western blotting): significantly lower number of receptors
[2]
  median survival: 43 ± 2 days
Ras (p21)
  Ras (p21) expression, PANC-1: significant inhibition
IGF1-R [3]
  IGF1-R expression, U-373 cells: significantly down regulated
Rat astrocyte cells
  apoptotic rate (in situ TUNEL), rat astrocytes: did not increase the apoptotic rate
IGF1-R [4]
  IGF1-R expression, T98G cells: significantly down regulated
